Data on 9 compounds can be found in patent US20080312192A1, “Diaryl Urea Derivatives in the Treatment of Protein Kinase Dependent Diseases” (priority 2003, published 2008).

Broadly, the IC50 is the concentration at which inhibition is half-maximal. Higher therefore signals a need for much substance.

For this assay, the target named is T1, Flt-3 (Homo sapiens, UniProt P36888).
T1 construct: amino acids 563-993 of the cytoplasmic kinase domain of human Flt-3; made in house; host or cells: Sf9 insect cells (baculovirus, vector pFbacG01)
T1 sequence (P36888 563-993): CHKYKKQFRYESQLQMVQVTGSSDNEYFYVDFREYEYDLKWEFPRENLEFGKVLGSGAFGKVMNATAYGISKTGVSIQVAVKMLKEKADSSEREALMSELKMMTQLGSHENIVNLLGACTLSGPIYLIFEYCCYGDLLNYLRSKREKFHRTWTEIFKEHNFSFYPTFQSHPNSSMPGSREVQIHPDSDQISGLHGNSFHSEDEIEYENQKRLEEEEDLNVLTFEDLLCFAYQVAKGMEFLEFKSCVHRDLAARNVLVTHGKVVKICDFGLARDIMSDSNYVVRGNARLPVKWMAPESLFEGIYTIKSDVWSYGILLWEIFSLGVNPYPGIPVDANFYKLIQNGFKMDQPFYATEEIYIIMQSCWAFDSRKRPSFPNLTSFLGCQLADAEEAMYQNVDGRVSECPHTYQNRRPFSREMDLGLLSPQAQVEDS
Kind of assay: Flt-3 kinase inhibition (GST-Flt-3, 33P incorporation into poly(Glu,Tyr)). Format: biochemical. The essentials: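 GST-fused human Flt-3 kinase domain (aa 563-993) from Sf9 cells assayed with 3 μg/mL poly(Glu,Tyr) 4:1, 8.0 μM ATP plus [γ-33P]ATP, Mn2+/Mg2+, pH 7.6, 20 min at ambient temperature. 33P incorporation counted on PVDF; IC50 by linear regression, duplicates at four concentrations (usually 0.01-10 μM).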
Compound `Nc1cc(Oc2ccc(NC(=O)Nc3cc(CN4CCC4)cc(C(F)(F)F)c3)cc2)ncn1` [Example 4, N-[4-(6-Amino-pyrimidin-4-yloxy)-phenyl]-N′-(3-azetidin-1-ylmethyl-5-trifluoromethyl-phenyl)-urea] displayed an IC50 of 153 nM. In other words, the sub-micromolar range.
As for `CNc1cc(Oc2ccc(NC(=O)Nc3cc(CN4CCN(C(C)C)CC4)cc(C(F)(F)F)c3)cc2)ncn1` [Example 6, N-[4-(6-Methylamino-pyrimidin-4-yloxy)-phenyl]-N′-[3-(4-isopropylpiperazin-1-ylmethyl)-5-trifluoromethyl-phenyl]-urea], the figure is 400 nM; as for `CC(C)N1CCN(Cc2ccc(NC(=O)Nc3ccc(Oc4cc(N)ncn4)cc3)cc2C(F)(F)F)CC1` [Example 19, N-[4-(6-Amino-pyrimidin-4-yloxy)-phenyl]-N′-[4-(4-isopropylpiperazin-1-ylmethyl)-3-trifluoromethyl-phenyl]-urea], 250 nM.
As to `CC(C)(C)N1CCN(Cc2ccc(NC(=O)Nc3ccc(Oc4ccnc(N)n4)cc3)cc2C(F)(F)F)CC1` [Example 50], the IC50 stood at 120 nM.
As for `Cc1ncn(Cc2ccc(NC(=O)Nc3ccc(Oc4ccnc(N)n4)cc3)cc2C(F)(F)F)c1C` [Example 51a.1, 1-[4-(2-Amino-pyrimidin-4-yloxy)-phenyl]-3-(4-(4,5-dimethyl-imidazol-1-ylmethyl)-3-trifluoromethyl-phenyl]-urea], the figure is 85 nM; as for `CN1CCN(Cc2ccc(NC(=O)Nc3ccc(Oc4ccnc(N)n4)cc3)cc2C(F)(F)F)CC1` [Example 52a, 1-[4-(2-amino-pyrimidin-4-yloxy)-phenyl]-3-[4-(4-methylpiperazin-1-ylmethyl)-3-trifluoromethyl-phenyl]-urea], 120 nM.
Compound `CCN1CCN(Cc2ccc(NC(=O)Nc3ccc(Oc4ccnc(N)n4)cc3)cc2C(F)(F)F)CC1` [Example 52c, 1-[4-(2-Amino-pyrimidin-4-yloxy)-phenyl]-3-[4-(4-ethyl-piperazin-1-ylmethyl)-3-trifluoromethyl-phenyl]-urea] gave an IC50 of 29 nM.
As for `CNc1nccc(Oc2ccc(NC(=O)Nc3cc(N4CCN(C)CC4)cc(C(F)(F)F)c3)cc2)n1` [Example 53b, 1-[4-(2-Methylamino-pyrimidin-4-yloxy)-phenyl]-3-[3-(4-methyl-piperazin-1-yl)-5-trifluoromethyl-phenyl]-urea], the figure is 120 nM; as for `CNc1nccc(Oc2ccc(NC(=O)Nc3ccc(N4CCN(C)CC4)c(C(F)(F)F)c3)cc2)n1` [Example 53d, 1-[4-(2-Methylamino-pyrimidin-4-yloxy)-phenyl]-3-[4-(4-methyl-piperazin-1-yl)-3-trifluoromethyl-phenyl]-urea], 190 nM.
